Assay results from patent US20100267742A1, “COMBINATION TARGETED THERAPY FOR LUNG CANCER” (RUSH UNIVERSITY MEDICAL CENTER, priority 2009, published 2010).
“Also recorded” adds a separate entry of the source.

Columns and labels:
Type in all cases: cell-based, human
[1] = test system: kinase and receptor phosphorylation in Calu3 cells; test: Western blot with anti-phospho antibodies on lysates of serum-starved cells; details: for Akt (ser473) phosphorylation / EGFR (Y1068) phosphorylation: low doses alone versus combination
Procedure: (§1) Lysates were prepared for immunoprecipitation and Western blotting from serum-starved Calu3 and H1975 cell lines after incubation with kinase inhibitors, including enzastaurin for PKCβ, and SU11274 for c-met. Specific site directed anti-phospho-antibodies were used to probe Western blots to determine the effect of respective inhibitors on downstream kinase activation. Proliferation and cell viability assays were performed with 10,000 cells seeded into 96-well plates and incubated with inhibitors in serum-starved cultures for 72 hours. Cell viability was determined by the addition of Calcein-AM (calcein-acetoxymethyl ester, diacetate) for the final 2 hours and plates were read at 515 nm. Antibodies: Anti-EGFR, antiphospho-EGFR (Tyr845), anti-phospho-EGFR (Tyr1068), anti-phospho-Akt (Ser473), anti phospho-Erk1,2 (Thr202/Tyr204), anti-phospho-PKCα,β) were purchased from Cell Signaling. Cell cultures: Cells were serum starved for 18-24 hours prior to incubation with kinase inhibitors. Enzastaurin was added for a minimum of 3.5 hours of culture and SU11274 for at least one hour before preparation of lysates. Cell lysates: Media were removed from confluent monolayers of cells immediately before addition of lysis buffer (1 μg/ml aprotinin, 1 μg/ml leupeptin, 200 μM sodium vanadate (NaVO4), 0.1% NP-40, […], 20 mM EDTA, 1 mM PMSF in 50 mM Tris-HCl (pH 7.5). Cells were harvested and sonicated in lysis buffer. After 15 minutes on ice, lysates were microcentrifuged for 20 minutes. Supernatants were removed and protein concentrations therein determined spectrophotometrically with protein detection reagent. Western blots: 10-30 μg of lysate were mixed with loading buffer and boiled before loading into 7.5% Tris-HCl pre-cast SDS-PAGE gels for electrophoresis in SDS-glycine buffer for 90 minutes. Separated proteins were transferred from the gel to Hybond ECL nitrocellulose membrane using a Trans-Blot SD semi-dry transfer cell apparatus. The transfer ran at 20 volts for 35-40 minutes. Nitrocellulose membranes were washed in 1×Tris Buffered Saline-0.1% Tween 20 (TBS-T) then blocked with 5% BSA or 5% milk in TBS-T on rotator for one hour at room temperature or overnight at 4° C. 0.2% Sodium Azide (NaN3) was added to all blocking and primary antibody solutions. Nitrocellulose membranes were probed with 1:1000 or 1:2000 primary antibody.

H1975 cells = test: Cell proliferation / cell survival (viability) assay, Calcein-AM, 72 hours; details: H1975 cell line, two EGFR mutations, alone or in combination
Procedure: (§2) Lysates were prepared for immunoprecipitation and Western blotting from serum-starved Calu3 and H1975 cell lines after incubation with kinase inhibitors, including enzastaurin for PKCβ, and SU11274 for c-met. Specific site directed anti-phospho-antibodies were used to probe Western blots to determine the effect of respective inhibitors on downstream kinase activation. Proliferation and cell viability assays were performed with 10,000 cells seeded into 96-well plates and incubated with inhibitors in serum-starved cultures for 72 hours. Cell viability was determined by the addition of Calcein-AM (calcein-acetoxymethyl ester, diacetate) for the final 2 hours and plates were read at 515 nm. Lung carcinoma cell lines: H1975 and Calu-3 were cultured following ATCC guidelines. Cells are removed from flasks with cell dissociation buffer in PBS.

Calu3 cells = test: as above; details: for cell survival / cell viability / sensitivity: Calu3, 72 hours in culture, serum-starved; for effect on cell number (3-factor ANOVA): Calu3 cell line, no EGFR mutation, alone or in combination
Procedure: as §2

[2] = test system: kinase phosphorylation in H1975 cells; test: Western blot with anti-phospho antibodies on lysates of serum-starved cells
Procedure: as §1

SMILES | Akt (ser473) phosphorylation ([1]; Calu3) | EGFR (Y1068) phosphorylation ([1]; Calu3) | effect on cell number (3-factor ANOVA) (H1975 cells; listed as SU) | cell survival / cell viability / sensitivity (Calu3 cells) | effect on cell number (3-factor ANOVA) (Calu3 cells; listed as SU) | sic phosphorylation ([2]; H1975) | PKCαβ phosphorylation ([2]; H1975, short-term incubation, serum-free medium) | c-met phosphorylation ([1]; Calu3) | erbB3 phosphorylation ([1]; Calu3) | phosphorylation of PKC family members (pan-antibody against common phosphorylation sites) ([1]; Calu3) | sic phosphorylation ([1]; Calu3) | PKCαβ phosphorylation ([1]; Calu3, 3.5 hours in culture, serum-free medium) | effect on cell number (3-factor ANOVA) (H1975 cells; listed as Enza150) | effect on cell number (3-factor ANOVA) (H1975 cells; listed as Enzo150) | effect on cell number (3-factor ANOVA) (Calu3 cells; listed as Enzo 150)
Cc1[nH]c(/C=C2\C(=O)Nc3ccc(S(=O)(=O)N(C)c4cccc(Cl)c4)cc32)c(C)c1C(=O)N1CCN(C)CC1 [SU11274] | only minimal effects | only minimal effects | neither SU nor Enzo150 alone has a significant effect; also recorded: not significantly effective | significantly decreases the numbers of NSCLC cells | significant effect | – | – | – | – | – | – | – | – | – | –
Cn1cc(C2=C(c3cn(C4CCN(Cc5ccccn5)CC4)c4ccccc34)C(=O)NC2=O)c2ccccc21 [enzastaurin] | only minimal effects | only minimal effects | – | greatest sensitivity; also recorded: significantly decreases the numbers of NSCLC cells | – | only a moderate effect | inhibited | decreased | decreased | does not inhibit phosphorylation of all PKC family members | substantially decreased | dose dependent inhibition; also recorded: inhibited | not significantly effective | neither SU nor Enzo150 alone has a significant effect | significant effect
